Where a name gives a salt, the structure may show the parent alone. Read-outs that look alike come from different tables or passages of the source.
Key:
KRas G12C = KRas G12C (Homo sapiens, UniProt P01116, C118S/C51S/C80L/G12C); experiment: KRas G12C Modification Assay (LCMS detection of covalent adduct); format: binding; details: normalized percent of control; tested at 5 μM concentration for 3 hours
Method: A 10 μL aliquot of each protein solution was then transferred to a 384 well microtiter plate. Initial compound stocks were generated at fifty times their desired final assay concentration in DMSO.
Exemplary compounds of Formula (I) were diluted 25-fold into K-Ras Assay Buffer to a final of two times their final concentration. A 10 μL aliquot of each diluted compound solution was then added to each of the protein solutions in the microtiter plate to initiate reaction. […] At each time point, the reactions were quenched with 20 μL of a 25 mM acetic acid solution. […] Once all reactions were quenched, the plates were heat sealed and the samples were injected into a LC/MS system for data acquisition.
Samples were injected in their liquid phase onto a C-3 reverse phase column to remove assay buffer and prepare the samples for mass spectrometer. The proteins were eluted from the column using an acetonitrile gradient and fed directly into the mass analyzer. Initial raw data analysis took place in Agilent MassHunter software immediately post data acquisition.
Raw data analysis of the intact protein was exclusively a deconvolution of the multiple charge states of each protein in solution using a maximum entropy deconvolution provided in Mass Hunter. To minimize complexity, only the data over limited mass ranges were considered for analysis, with a minimum of one Dalton mass step intervals. The heights of all masses identified during raw data analysis were exported to be further analyzed in Spotfire® data analysis software.
Final data analysis was a multistep process in the Spotfire® data analysis software package. Briefly, each protein mass was calculated as a percent of the total signal of that sample, that percentage was then normalized to the percentage of signal of the protein in the absence of reactive compounds. Those normalized signals were reported as normalized percent of control (POC). […] Key: “A”≤25% POC; “B”>25% POC−≤50% POC; “C”>50% POC and ND=not determined.

[1] = system: NCI-H358 cells (express KRas G12C), Phospho-ERK; experiment: Cellular inhibition of KRas G12C: Phospho-ERK in NCI-H358 cells; format: cell-based; details: pERK(Thr202/Tyr204) normalized with GAPDH, NCI-H358 cells, 3 hours, read-out: IC50
Method: The cellular inhibition of KRAs G12C by exemplary compounds of the present invention was determined by measuring the amount of a downstream marker of KRas activity, phosphorylated ERK (“Phospho-ERK”).
Cells were plated in poly-D-Lysine coated 96-well plates at a concentration of 50,000 cells/well and allowed to attach for 8-12 hours. Diluted compounds were then added at a final concentration of 0.5% DMSO. After 3 hours, the medium was removed, 150 μL of 4% formaldehyde was added and the plates were incubated for 20 minutes. The plates were washed with PBS, and permeabilized using 150 μL of ice cold 100% methanol for 10 minutes. Non-specific antibody binding to the plates was blocked using 100 μL Licor Blocking Buffer (Li-Cor Biotechnology, Lincoln Nebr.) for 1 hour at room temperature. Positive control samples and samples lacking cells were parallel processed with test samples as standards.
The amount Phospho-ERK was determined using an antibody specific for the phosphorylated form of ERK and compared to the amount of GAPDH. […] The plates were incubated for 2 hours at room temperature. The plates were washed with PBS+0.05% Tween 20.
Secondary antibodies used to visualize primary antibodies were added as follows: Anti-rabbit-680 diluted 1:1000 and Anti-mouse-800 diluted 1:1000 in Licor Block+0.05% Tween 20 and incubated for 1 hour at room temperature. The plates were washed with PBS+0.05% Tween 20. A 100 μL aliquot of PBS was added to each well and the plates were read on a LICOR AERIUS plate reader.
The pERK(Thr202/Tyr204) signal was normalized with the GAPDH signal and percent of DMSO control values were calculated. IC50 values were generated using a 4 parameter fit of the dose response curve. Key: “A”≥0.0001−≤1 μM; and “B”>1 μM.

How did the POC (KRas G12C) turn out when `CN(C)C/C=C/C(=O)N1CCN(c2nc(OC[C@@H]3CCCN3C)nc3c2CCN(c2cccc4ccccc24)C3)C[C@@H]1CC#N` [Example 235, 2-((S)-1-((E)-4-(dimethylamino)but-2-enoyl)-4-(2-(((S)-1-methylpyrrolidin-2-yl)methoxy)-7-(naphthalen-1-yl)-5,6,7,8-tetrahydropyrido[3,4-d]pyrimidin-4-yl)piperazin-2-yl)acetonitrile] was run?
Its POC is “C (“C”>50% POC)”.

And the IC50 ([1]; Homo sapiens, NCI-H358, 3 h)?
Its IC50 is 0.0001 to 1 µM.

Which results are given for `C=CC(=O)N1CCN(c2nc(OCCN3CCCCC3)nc3c2CCN(c2cc(O)cc4ccccc24)C3)CC1` [Example 52, 1-[4-[7-(3-hydroxy-1-naphthyl)-2-[2-(1-piperidyl)ethoxy]-6,8-dihydro-5H-pyrido[3,4-d]pyrimidin-4-yl]piperazin-1-yl]prop-2-en-1-one]?
POC (KRas G12C): C (“C”>50% POC); IC50 ([1]; Homo sapiens, NCI-H358, 3 h): 0.0001 to 1 µM

Which POC (KRas G12C) does the source give for `C=CC(=O)N1CCN(c2nc(NC[C@@H]3CCCN3C)nc3c2CCN(c2cccc4ccccc24)C3)C[C@@H]1CC#N` [Example 407, 2-((S)-1-acryloyl-4-(2-((((S)-1-methylpyrrolidin-2-yl)methyl)amino)-7-(naphthalen-1-yl)-5,6,7,8-tetrahydropyrido[3,4-d]pyrimidin-4-yl)piperazin-2-yl)acetonitrile] here?
Its POC is “C (“C”>50% POC)”.

And the IC50 ([1]; Homo sapiens, NCI-H358, 3 h)?
The IC50 was > 1 µM.

Which results are given for `C=CC(=O)N1CCN(c2nc(OCCN(CC)CC)nc3c2CCN(c2cc(O)cc4ccccc24)C3)CC1` [Example 102]?
POC (KRas G12C): C (“C”>50% POC); IC50 ([1]; Homo sapiens, NCI-H358, 3 h): 0.0001 to 1 µM

`C=CC(=O)N1CCN(c2nc(OC[C@@H]3C[C@@H](OC)CN3C)nc3c2CCN(c2cccc4ccccc24)C3)CC1CC#N` (stereo partly drawn) [Example 268, 2-(1-acryloyl-4-(2-(((2S,4R)-4-methoxy-1-methylpyrrolidin-2-yl)methoxy)-7-(naphthalen-1-yl)-5,6,7,8-tetrahydropyrido[3,4-d]pyrimidin-4-yl)piperazin-2-yl)acetonitrile] was tested. Which POC (KRas G12C) did it give?
The POC was “C (“C”>50% POC)”.

And the IC50 ([1]; Homo sapiens, NCI-H358, 3 h)?
Its IC50 is 0.0001 to 1 µM.

Which results are given for `C=CC(=O)N1CCN(c2nc(OCCCN3CCS(=O)(=O)CC3)nc3c2CCN(c2cc(O)cc4ccccc24)C3)CC1` [Example 34, 1-(4-(2-(3-(1,1-dioxidothiomorpholino)propoxy)-7-(3-hydroxynaphthalen-1-yl)-5,6,7,8-tetrahydropyrido[3,4-d]pyrimidin-4-yl)piperazin-1-yl)prop-2-en-1-one trifluoroacetate]?
POC (KRas G12C): A (“A”≤25% POC); IC50 ([1]; Homo sapiens, NCI-H358, 3 h): > 1 µM

Which results are given for `C=CC(=O)N1CCN(c2nc(OCCN(C)C)nc3c2CCN(c2cc(O)cc4ccccc24)C3)C[C@@H]1C` [Example 14]?
POC (KRas G12C): C (“C”>50% POC); IC50 ([1]; Homo sapiens, NCI-H358, 3 h): > 1 µM

What does the source list for `C=CC(=O)N1CCN(c2nc(OC[C@@H]3C[C@H](OC)CN3C)nc3c2CCN(c2cccc4ccccc24)C3)CC1CC#N` (stereo partly drawn) [Example 222, 2-(1-acryloyl-4-(2-(((2S,4S)-4-methoxy-1-methylpyrrolidin-2-yl)methoxy)-7-(naphthalen-1-yl)-5,6,7,8-tetrahydropyrido[3,4-d]pyrimidin-4-yl)piperazin-2-yl)acetonitrile]?
POC (KRas G12C): C (“C”>50% POC); IC50 ([1]; Homo sapiens, NCI-H358, 3 h): 0.0001 to 1 µM

Which POC (KRas G12C) does the source give for `C=CC(=O)N1CCN(c2nc(OCC3CN(C)CCN3C)nc3c2CCN(c2cc(O)cc4ccccc24)C3)CC1` (stereo not drawn) [Example 219, 1-(4-(2-((1,4-dimethylpiperazin-2-yl)methoxy)-7-(3-hydroxynaphthalen-1-yl)-5,6,7,8-tetrahydropyrido[3,4-d]pyrimidin-4-yl)piperazin-1-yl)prop-2-en-1-one] here?
The POC was “C (“C”>50% POC)”.

What about the IC50 ([1]; Homo sapiens, NCI-H358, 3 h) of the same compound?
Its IC50 is > 1 µM.

How did the POC (KRas G12C) turn out when `C=CC(=O)N1CCN(c2nc(OC[C@@H]3CCCN3C)nc3c2CCN(c2cncc4ccccc24)C3)CC1CC#N` (stereo partly drawn) [Example 260, 2-[4-[7-(4-isoquinolyl)-2-[[(2S)-1-methylpyrrolidin-2-yl]methoxy]-6,8-dihydro-5H-pyrido[3,4-d]pyrimidin-4-yl]-1-prop-2-enoyl-piperazin-2-yl]acetonitrile] was run?
Its POC is “C (“C”>50% POC)”.

What about the IC50 ([1]; Homo sapiens, NCI-H358, 3 h) of the same compound?
The IC50 was 0.0001 to 1 µM.

`C=CC(=O)N1CCN(c2nc(OCCN3CCC(F)(F)C3)nc3c2CCN(c2cc(O)cc4ccccc24)C3)CC1` [Example 139, 1-[4-[2-[2-(3,3-difluoropyrrolidin-1-yl)ethoxy]-7-(3-hydroxy-1-naphthyl)-6,8-dihydro-5H-pyrido[3,4-d]pyrimidin-4-yl]piperazin-1-yl]prop-2-en-1-one] was tested. Which POC (KRas G12C) did it give?
Its POC is “C (“C”>50% POC)”.

And the IC50 ([1]; Homo sapiens, NCI-H358, 3 h)?
The IC50 was > 1 µM.

`C=CC(=O)N1CCN(c2nc(OC[C@@H]3CCCN3C)nc3c2CCN(c2cc(O)cc4ccccc24)C3)CC1CC#N` (stereo partly drawn) [Example 182, 2-[4-[7-(3-hydroxy-1-naphthyl)-2-[[(2S)-1-methylpyrrolidin-2-yl]methoxy]-6,8-dihydro-5H-pyrido[3,4-d]pyrimidin-4-yl]-1-prop-2-enoyl-piperazin-2-yl]acetonitrile] was tested. Which POC (KRas G12C) did it give?
Its POC is “C (“C”>50% POC)”.

What about the IC50 ([1]; Homo sapiens) of the same compound?
Its IC50 is 0.0001 to 1 µM.

Which POC (KRas G12C) does the source give for `C=CC(=O)N1CCN(c2nc(OCCCN3C[C@@H]4C[C@H]3CO4)nc3c2CCN(c2cccc4cccc(Cl)c24)C3)C[C@@H]1CC#N` [Example 365, 2-[(2S)-4-[7-(8-chloro-1-naphthyl)-2-[3-[(1S,4S)-2-oxa-5-azabicyclo[2.2.1]heptan-5-yl]propoxy]-6,8-dihydro-5H-pyrido[3,4-d]pyrimidin-4-yl]-1-prop-2-enoyl-piperazin-2-yl]acetonitrile] here?
Its POC is “C (“C”>50% POC)”.

And the IC50 ([1]; Homo sapiens, NCI-H358, 3 h)?
Its IC50 is 0.0001 to 1 µM.

What does the source list for `C=CC(=O)N1CCN(c2nc(OC[C@@H]3CN(C)CCO3)nc3c2CCN(c2cccc4ccccc24)C3)CC1CC#N` (stereo partly drawn) [Example 442, 2-(1-Acryloyl-4-(2-(((S)-4-methylmorpholin-2-yl)methoxy)-7-(naphthalen-1-yl)-5,6,7,8-tetrahydropyrido[3,4-d]pyrimidin-4-yl)piperazin-2-yl)acetonitrile]?
POC (KRas G12C): C (“C”>50% POC); IC50 [1]: 0.0001 to 1 µM

For `C=CC(=O)N1CCN(c2nc(OC[C@@H]3CCCN3C)nc3c2CCN(c2cccc(Cl)c2CC)C3)C[C@@H]1CC#N` [Example 337, 2-[(2S)-4-[7-(3-chloro-2-ethyl-phenyl)-2-[[(2S)-1-methylpyrrolidin-2-yl]methoxy]-6,8-dihydro-5H-pyrido[3,4-d]pyrimidin-4-yl]-1-prop-2-enoyl-piperazin-2-yl]acetonitrile], which POC (KRas G12C) is on record?
Its POC is “C (“C”>50% POC)”.

And the IC50 ([1]; Homo sapiens, NCI-H358, 3 h)?
The IC50 was 0.0001 to 1 µM.

What does the source list for `C=CC(=O)N1CCN(c2nc(OC[C@H]3CCCCN3C)nc3c2CCN(c2cc(O)cc4ccccc24)C3)CC1` [Example 195, (R)-1-(4-(7-(3-hydroxynaphthalen-1-yl)-2-((1-methylpiperidin-2-yl)methoxy)-5,6,7,8-tetrahydropyrido[3,4-d]pyrimidin-4-yl)piperazin-1-yl)prop-2-en-1-one]?
POC (KRas G12C): C (“C”>50% POC); IC50 ([1]; Homo sapiens, NCI-H358, 3 h): > 1 µM

What does the source list for `C=CC(=O)N1CCN(c2nc(OC[C@@H]3CCCN3C)nc3c2CCN(c2cccc4ccc(OC)cc24)C3)CC1CC#N` (stereo partly drawn) [Example 288, 2-[4-[7-(7-methoxy-1-naphthyl)-2-[[(2S)-1-methylpyrrolidin-2-yl]methoxy]-6,8-dihydro-5H-pyrido[3,4-d]pyrimidin-4-yl]-1-prop-2-enoyl-piperazin-2-yl]acetonitrile]?
POC (KRas G12C): A (“A”≤25% POC); IC50 [1]: > 1 µM

`C=CC(=O)N1CCN(c2nc(OCC3CCN(C4CCCCC4)C3)nc3c2CCN(c2cc(O)cc4ccccc24)C3)CC1` (stereo not drawn) [Example 132, 1-[4-[2-[(1-cyclohexylpyrrolidin-3-yl)methoxy]-7-(3-hydroxy-1-naphthyl)-6,8-dihydro-5H-pyrido[3,4-d]pyrimidin-4-yl]piperazin-1-yl]prop-2-en-1-one] was tested. Which POC (KRas G12C) did it give?
Its POC is “C (“C”>50% POC)”.

And the IC50 ([1]; Homo sapiens, NCI-H358, 3 h)?
Its IC50 is 0.0001 to 1 µM.

— patent US10125134B2 (Mirati Therapeutics, Inc., priority 2016, dated 2018)
